From paper PMC3799725, “Detection of Active Matriptase Using a Biotinylated Chloromethyl Ketone Peptide” (PLoS ONE, 2013)
Where no end group is shown, it is not given here. The star is where a group is joined. Biotin = O=C1N[C@H]2[C@H](CS[C@H]2CCCCC(=O)*)N1

Experiments:
[1] = test system: murine matriptase (primary keratinocytes); details: representative of 2 independent experiments; for labeling of matriptase in matriptase-deficient (KO) murine keratinocytes: lysates or pull downs (figure 6 lanes 4-6 and 10-12)
matriptase-HAI-1 complex = assay: Reaction with / effect on matriptase-HAI-1 complex in Caco-2 cells (pH 6.0-induced)
matriptase SPD = assay: Chromogenic assay: inhibition of matriptase SPD cleavage of S2288; details: representative of 3 independent experiments

Compound	labeling of matriptase on WT murine keratinocytes by control peptide ([1]; 50 µM control peptide, WT keratinocytes (figure 6 lane 3))	labeling of matriptase in matriptase-deficient (KO) murine keratinocytes [1]	labeling of matriptase after pH 6.0 pre-treatment (matriptase-HAI-1 complex formed) (matriptase-HAI-1 complex; 50 µM, 30 min at 37°C at pH 7.4 after 30 min pre-treatment at pH 6.0 (figure 4 lane 9))	labeling of matriptase-HAI-1 complex (matriptase-HAI-1 complex; Caco-2, 50 µM, 30 min at 37°C, conclusion from pH 6.0 pre-treatment)	dissociation of matriptase-HAI-1 complex (matriptase-HAI-1 complex; under the conditions used in the study)	inhibition of peptidolytic activity of matriptase SPD after pre-incubation of inhibitor (matriptase SPD; 5 nM inhibitor pre-incubated 60 min at 37°C, 0.2 nM SPD, Hepes pH 7.4, S2288 300 µM, 405 nm)	inhibition of peptidolytic activity of matriptase SPD (matriptase SPD; 5 nM inhibitor, no pre-incubation (0 min), 0.2 nM SPD, Hepes pH 7.4, 10 min at 37°C, S2288 300 µM, 405 nm)	inhibition of matriptase SPD after pre-incubation of inhibitor (matriptase SPD; 50 µM inhibitor pre-incubated in aqueous solution 180 min at 37°C, 0.2 nM SPD, Hepes pH 7.4, 10 min at 37°C, S2288 300 µM, 405 nm)	inhibition of matriptase SPD cleavage of chromogenic substrate at pH 6.0 (matriptase SPD; 50 µM inhibitor, 20 mM citric acid pH 6.0, 140 mM NaCl, 0.1% BSA, 10 min at 37°C, S2288 300 µM)
Biotin-RQRR [biotin-RQRR]	No matriptase was detected	No matriptase could be detected in lysates or pull downs	–	–	–	–	–	–	–
O=C(CCCC[C@@H]1SC[C@@H]2NC(=O)N[C@@H]21)NCCSSCCC(=O)ON1C(=O)CC(S(=O)(=O)[O-])C1=O.[Na+] (some centres unmarked) [S-NHS-SS-biotin]	–	No matriptase could be detected in lysates or pull downs	–	–	–	–	–	–	–
biotin-Arg-Gln-Arg-Arg-chloromethyl ketone	–	No matriptase could be detected in lysates or pull downs	but not when the cells had been exposed to pH 6.0 for 30 min	matriptase-HAI-1 complex is not labeled	not able to dissociate the matriptase-HAI-1 complex	fully inhibiting the peptidolytic activity	fully inhibiting the peptidolytic activity	still sufficient to efficiently inhibit the activity	no cleavage of the substrate was observed
